Data as given in US6087355A, “Cephalosporin antibiotics” (Microcide Pharmaceuticals, Inc., priority 1996, dated 2000).
Counter-ions that a name gives are not always drawn. Like-named read-outs stand apart in the source and are kept apart here.

What was measured:
[1] = tested on: E. coli ATCC 25992; assay: In vitro MIC, agar dilution; type: cell-based; settings: for MIC: Escherichia coli, ATCC25992, read-out: minimum inhibitory concentration (MIC)
Outline: (§1)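 Agar dilution on Mueller-Hinton plates: spots of roughly 10^4 cfu of log-phase bacteria were placed on agar containing serial two-fold compound dilutions, from a 128 μg/mL top working level to ≤0.25 μg/mL, each in duplicate. After 16-20 hours at 35-36° C, the lowest growth-inhibiting concentration was taken as the MIC.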

[2] = tested on: E. faecalis ATCC 29212; assay: In vitro MIC, agar dilution; type: cell-based; settings: for MIC: Enterococcus faecalis, ATCC29212, read-out: minimum inhibitory concentration (MIC)
Outline: as §1

[3] = tested on: E. faecalis VanB(Van^R); assay: In vitro MIC, agar dilution; type: cell-based; settings: for MIC: Enterococcus faecalis, read-out: minimum inhibitory concentration (MIC)
Outline: as §1

[4] = tested on: E. faecium A491(Amp^R); assay: In vitro MIC, agar dilution; type: cell-based; settings: for MIC: Enterococcus faecium, read-out: minimum inhibitory concentration (MIC)
Outline: as §1

[5] = tested on: E. faecium ATCC 35667; assay: In vitro MIC, agar dilution; type: cell-based; settings: for MIC: Enterococcus faecium, ATCC35667, read-out: minimum inhibitory concentration (MIC)
Outline: as §1

[6] = tested on: E. faecium VanA(Van^R); assay: In vitro MIC, agar dilution; type: cell-based; settings: for MIC: Enterococcus faecium, read-out: minimum inhibitory concentration (MIC)
Outline: as §1

[7] = tested on: P. aeruginosa ATCC 27853; assay: In vitro MIC, agar dilution; type: cell-based; settings: for MIC: Pseudomonas aeruginosa, ATCC27853, read-out: minimum inhibitory concentration (MIC)
Outline: as §1

[8] = tested on: S. aureus 76(Meth^R)(lac^+); assay: In vitro MIC, agar dilution; type: cell-based; settings: for MIC: Staphylococcus aureus, read-out: minimum inhibitory concentration (MIC)
Outline: as §1

[9] = tested on: S. aureus ATCC 13709(Meth^S); assay: In vitro MIC, agar dilution; type: cell-based; settings: for MIC: Staphylococcus aureus, ATCC13709, S. aureus ATCC 13709(Meth^S), read-out: minimum inhibitory concentration (MIC)
Outline: as §1

[10] = tested on: S. aureus ATCC 29213; assay: In vitro MIC, agar dilution; type: cell-based; settings: for MIC: Staphylococcus aureus, ATCC29213, read-out: minimum inhibitory concentration (MIC)
Outline: as §1

[11] = tested on: S. aureus ATCC 33593(Meth^R); assay: In vitro MIC, agar dilution; type: cell-based; settings: for MIC: Staphylococcus aureus, ATCC33593, read-out: minimum inhibitory concentration (MIC)
Outline: as §1

[12] = tested on: S. aureus PC1(Meth^S)(lac^+); assay: In vitro MIC, agar dilution; type: cell-based; settings: for MIC: Staphylococcus aureus, read-out: minimum inhibitory concentration (MIC)
Outline: as §1

[13] = tested on: S. aureus Spain #356(Meth^R); assay: In vitro MIC, agar dilution; type: cell-based; settings: for MIC: Staphylococcus aureus, read-out: minimum inhibitory concentration (MIC)
Outline: as §1

[14] = tested on: S. haemolyticus 05(Meth^R); assay: In vitro MIC, agar dilution; type: cell-based; settings: for MIC: Staphylococcus haemolyticus, read-out: minimum inhibitory concentration (MIC)
Outline: as §1

[15] = tested on: S. aureus Col(Meth^R)(lac^-); assay: In vitro MIC, agar dilution; type: cell-based; settings: for MIC: Staphylococcus aureus, read-out: minimum inhibitory concentration (MIC)
Outline: (§2)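 Two-fold dilutions (128 to ≤0.25 μg/mL, in duplicate) were poured into Mueller-Hinton agar. Log-phase broth cultures were spot-inoculated at about 10^4 cfu per spot and incubated 35-36°C for 16-20 hours; the MIC was the lowest concentration inhibiting growth. Col is a high-level PBP2a producer; Col 8A is its isogenic PBP2a-lacking partner.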

[16] = tested on: S. aureus Col8A(Meth^S)(lac^-); assay: In vitro MIC, agar dilution; type: cell-based; settings: S. aureus Col8A(Meth^S)(lac^-); for MIC: Staphylococcus aureus, read-out: minimum inhibitory concentration (MIC)
Outline: as §2

[17] = tested on: S. aureus strain ATCC 13709 (methicillin-susceptible); assay: Murine model for lethal bacteremic peritonitis; type: in vivo, female Swiss-Webster mice; parameters: ED50: unit: mg/kg; settings: SC, 72 h; for responders at 0.3125 mg/kg / responders at 0.625 mg/kg / responders at 2.5 mg/kg / responders at 5 mg/kg: read-out: Survivors; for responders at 1.25 mg/kg: read-out: Survivors (converted); for ED50: two equal doses, IP challenge
Outline: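 Female Swiss-Webster mice were challenged IP with an LD100 inoculum in 7% hog gastric mucin, then given test drug subcutaneously in twofold increments (0.01–512 mg/kg) as two equal doses at challenge and 2 h later, 10 mice per group. Survival was scored at 72 h; PD50 (total mg/kg) was derived by probit.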

[18] = Staphylococcus aureus, ATCC13709, Dose 0.3125 mg/kg
[19] = Staphylococcus aureus, ATCC13709, Dose 0.625 mg/kg
[20] = Staphylococcus aureus, ATCC13709, Dose 1.25 mg/kg
[21] = Staphylococcus aureus, ATCC13709, Dose 2.5 mg/kg
[22] = Staphylococcus aureus, ATCC13709
[23] = Staphylococcus aureus, ATCC13709, read-out: ED50

## CN(C)C(=O)[C@@H](N)CSCc1cnccc1SC1=C(C(=O)O)N2C(=O)[C@@H](NC(=O)/C(=N\O)c3nc(N)sc3Cl)[C@H]2SC1 [Cmpd 58, (7R)-7-[(Z)-2-(2-amino-5-chlorothiazol-4-yl)-2-(hydroxyimino)acetamido]-3-(3-(2R-2-N,N-dimethylcarboxamido-2-aminoethylthiomethyl)pyrid-4-ylthio)-3-cephem-4-carboxylate, trifluoroacetic acid salt]
[1]
  MIC: 8 µg/mL
[2]
  MIC: 0.5 µg/mL
[3]
  MIC: 0.5 µg/mL
[4]
  MIC: 16 µg/mL
[5]
  MIC: 1 µg/mL
[6]
  MIC: 2 µg/mL
[7]
  MIC: > 32 µg/mL
[8]
  MIC: 4 µg/mL
[9]
  MIC: 0.5 µg/mL
[10]
  MIC: 0.5 µg/mL
[11]
  MIC: 2 µg/mL
[12]
  MIC: 1 µg/mL
[13]
  MIC: 4 µg/mL
[14]
  MIC: 4 µg/mL
[15]
  MIC: 4 µg/mL
[16]
  MIC: 0.5 µg/mL
[17]; [18]
  responders at 0.3125 mg/kg: 10%
[17]; [19]
  responders at 0.625 mg/kg: 10%
[17]; [20]
  responders at 1.25 mg/kg: 20%
[17]; [21]
  responders at 2.5 mg/kg: 50%
[17]; [22]
  responders at 5 mg/kg: 50%
[17]; [23]
  ED50: 4.1 mg/kg

## (7R)-7-[(Z)-2-(aminothiazol-4-yl)-2-(hydroxyimino)acetamido]-3-[(methylaminoethylaminoethylthiomethyl)-1,2,3-thiadiazol-5-ylthio]-3-cephem-4-carboxylate, trifluoroacetic acid salt [Cmpd 11]
[1]
  minimum inhibitory concentration (MIC): 8 µg/mL
[2]
  minimum inhibitory concentration (MIC): 0.25 µg/mL
[3]
  minimum inhibitory concentration (MIC): 0.5 µg/mL
[4]
  minimum inhibitory concentration (MIC): > 32 µg/mL
[5]
  minimum inhibitory concentration (MIC): 2 µg/mL
[6]
  minimum inhibitory concentration (MIC): 4 µg/mL
[7]
  minimum inhibitory concentration (MIC): > 32 µg/mL
[8]
  minimum inhibitory concentration (MIC): 8 µg/mL
[9]; S. aureus ATCC 13709(Meth^S)
  minimum inhibitory concentration (MIC): 0.5 µg/mL
[10]
  minimum inhibitory concentration (MIC): 0.5 µg/mL
[11]
  minimum inhibitory concentration (MIC): 4 µg/mL
[12]
  minimum inhibitory concentration (MIC): 1 µg/mL
[13]
  minimum inhibitory concentration (MIC): 8 µg/mL
[14]
  minimum inhibitory concentration (MIC): 4 µg/mL
[15]
  minimum inhibitory concentration (MIC): 4 µg/mL
[16]
  minimum inhibitory concentration (MIC): 1 µg/mL
[17]; Dose 0.156 mg/kg
  Survivors: 1/10
[17]; Dose 0.3125 mg/kg
  Survivors: 1/10
[17]; Dose 0.625 mg/kg
  Survivors: 3/10
[17]; Dose 1.25 mg/kg
  Survivors: 5/10
[17]; Dose 2.5 mg/kg
  Survivors: 6/10
[17]
  ED50: 0.96 mg/kg

## NCCCSCc1cnccc1SC1=C(C(=O)O)N2C(=O)[C@@H](NC(=O)/C(=N\O)c3nc(N)sc3Cl)[C@H]2SC1 [Cmpd 27, (7R)-7-[(Z)-2-(2-amino-5-chlorothiazol-4-yl)-2-(hydroxyimino)acetamido]-3-[3-(3-aminopropyl)thiomethylpyrid-4-ylthio]-3-cephem-4-carboxylate, trifluoroacetic acid salt]
[1]
  MIC: 8 µg/mL
[2]
  MIC: ≤ 0.06 µg/mL
[3]
  MIC: ≤ 0.06 µg/mL
[4]
  MIC: 4 µg/mL
[5]
  MIC: 0.25 µg/mL
[6]
  MIC: 0.5 µg/mL
[7]
  MIC: 32 µg/mL
[8]
  MIC: 1 µg/mL
[9]
  MIC: 0.13 µg/mL
[10]
  MIC: 0.25 µg/mL
[11]
  MIC: 1 µg/mL
[12]
  MIC: 0.25 µg/mL
[13]
  MIC: 1 µg/mL
[14]
  MIC: 2 µg/mL
[15]
  MIC: 0.5 µg/mL
[16]
  MIC: 0.13 µg/mL
[17]; [18]
  responders at 0.3125 mg/kg: 0%
[17]; [19]
  responders at 0.625 mg/kg: 0%
[17]; [20]
  responders at 1.25 mg/kg: 20%
[17]; [21]
  responders at 2.5 mg/kg: 60%
[17]; [22]
  responders at 5 mg/kg: 70%
[17]; [23]
  ED50: 2.64 mg/kg
